Results reported in US6180156A, “Acid salts of N-[N-(3,3-dimethylbutyl)-L-α-aspartyl]-L-phenylalanine 1-methyl ester” (The NutraSweet Company, priority 1998, dated 2001).
Counter-ions that a name gives are not always drawn. Like-named read-outs stand apart in the source and are kept apart here. Each block holds one compound with its values, some of them ahead of it. Residues, ends and D or L forms follow the SMILES beside them.

Columns and labels:
[1] = Dissolution in water (time to complete dissolution); assay type: physicochemical
Procedure: N-[N-(3,3-dimethylbutyl)-L-α-aspartyl]-L-phenylalanine 1-methyl ester (25.0 g) was slurried in 150 ml of water. To the stirred slurry was slowly added concentrated hydrochloric acid (5.5 ml, 0.0661 mol). After approximately 10 minutes all the solid had dissolved. The clear solution was then freeze dried. […] Yield: 27.34 g white solid (99.7%). The hydrochloride salt (1 g) dissolved in water (100 ml) in 70 seconds. 1H NMR (CD3 CN) δ 0.89 (s, 9H), 1.64 (m, 2H), 3.01 (m, 6H), 3.68 (s, 3H), 4.16 (t, 1H), 4.67 (m, 1H), 7.26 (m, 5H), 8.27 (d, 1H). Anal. Calcd for C20 H31 ClN2 O5.H2 O: C, 55.48; H, 7.69; N, 6.47; Cl, 8.19. Found: C, 55.95; H, 7.59; N, 6.55; Cl, 8.35.
N-[N-(3,3-dimethylbutyl)-L-α-aspartyl]-L-phenylalanine 1-methyl ester (10.0 g) was slurried in 100 ml of water. An equimolar amount of 85% phosphoric acid solution was added. After all the solid dissolved, the solution was freeze dried. […] Yield 12.33 g white solid (98.0%). The phosphate salt (0.1 g) dissolved in water (100 ml) in less than 30 seconds (visual observation) and about 90 seconds by spectrophotometric analysis. 1H NMR (CD3 CN) δ 0.89 (s, 9H), 1.55 (m, 2H), 2.84 (m, 5H), 3.19 (m, 1H), 3.67 (s, 3H), 4.06 (t, 1H), 4.70 (m, 1H), 7.27 (m, 5H), 8.03 (d, 1H). Anal. Calcd for C20 H33 N2 O9 P.H2 O: C, 48.58; H, 7.15; N, 5.67; P, 6.26. Found: C, 48.15: H, 7.08; N, 5.60; P, 6.57.
N-[N-(3,3-dimethylbutyl)-L-α-aspartyl]-L-phenylalanine 1-methyl ester (25.0 g) was slurried in 100 ml of water and concentrated sulfuric acid (3.67 ml) was added slowly. After several minutes of stirring some material remained undissolved. Therefore, 75 ml of acetone was added. The resulting clear solution was stirred for 30 minutes, then the acetone was removed under reduced pressure on a rotary evaporator. The contents of the flask remained a clear solution. […] Yield: 30.04 g (95%). The sulfate salt (0.1 g) dissolved in water (100 ml) in less than 20 seconds (visual observation). 1H NMR (CD3 CN) δ 0.89 (s,9H), 1.57 (m, 2H), 2.91 (m, 5H), 3.20 (m, 1H), 3.68 (s, 3H), 4.15 (t, 1H), 4.72 (m, 1H), 7.27 (m, 5H), 7.68 (d, 1H). Anal. Calcd for C20 H32 N2 O9 S.H2 O: C, 48.56; H, 6.94; N, 5.66; S, 6.48. Found C, 48.93; H, 7.02; N, 5.78; S, 6.50.
N-[N-(3,3-dimethylbutyl)-L-α-aspartyl]-L-phenylalanine 1-methyl ester (5.00 g) was dissolved in 75 ml of acetone. Citric acid (2.53 g) was dissolved in 50 ml of water, and the acetone solution was added. This formed a clear, colorless solution that was stirred for 1 hour. The acetone was evaporated under reduced pressure. The resulting slurry was freeze dried to obtain 7.5 g of a white solid. The citrate salt (0.1 g) dissolved in water (100 ml) in 90 seconds (visual observation). δ (CD3 CN) 0.89 (s, 9H), 1.53 (m, 2H), 2.83 (m, 10H), 3.20 (m, 1H), 3.67 (s, 3H), 4.04 (t, 1H), 4.21 (m, 1H), 7.27 (m, 5H), 7.79 (d, 1H). Anal. Calcd for C26 H38 N2 O12.H2 O: C, 53.05; H, 6.86; N, 4.76. Found: C, 53.10; H, 6.88; N, 4.41.
N-[N-(3,3-dimethylbutyl) -L-α-aspartyl]-L-phenylalanine 1-methyl ester (0.05-0.1 g) was dissolved in water (100 mL). The compound completely dissolved in 5-7 minutes (visual observation). The dissolution of 1.0 g of N-[N-(3,3-dimethylbutyl)-L-α-aspartyl]-L-phenylalanine 1-methyl ester in 100 mL of water required approximately 45 minutes.

[2] = Aqueous solubility compared to the starting material / water solubility; assay type: physicochemical; conditions: starting material = neotame
[3] = amino group (primary in aspartame, secondary in neotame); cited from earlier work
[4] = cited from earlier work
[5] = on a weight basis, cited from earlier work
[6] = compared with aspartame; cited from earlier work
[7] = compared with aspartame, under some pH conditions; cited from earlier work
[8] = 0.1 g in water (100 ml), visual observation

SMILES: COC(=O)[C@H](Cc1ccccc1)NC(=O)[C@H](CC(=O)O)NCCC(C)(C)C [citrate salt, Citrate Salt of N-[N-(3,3-dimethylbutyl)-L-α-aspartyl]-L-phenylalanine 1-methyl Ester]
dissolution time in water (visual observation) [1, 8]: 90 s

SMILES: COC(=O)[C@H](Cc1ccccc1)NC(=O)[C@H](CC(=O)O)NCCC(C)(C)C [N-[N-(3,3-dimethylbutyl)-L-α-aspartyl]-L-phenylalanine 1-methyl ester]
pKa [3]: 8.1
solubility in water ([4]; compared with aspartame): much lower solubility in water
solubility in water ([4]; in words, no comparator): sparingly soluble in water
dissolution time in water, completely dissolved (visual observation) ([1]; 0.05-0.1 g in water (100 mL), visual observation): 5 to 7 min
dissolution time in water ([1]; 1.0 g in 100 mL of water): approximately 45 minutes
sweetening potency relative to aspartame ([5]; times that of aspartame): at least 50 times
sweetening potency relative to sucrose ([5]; times that of sucrose): about 10,000 times
solubility in organic solvents [6]: much higher solubility in organic solvents than aspartame
stability [7]: higher stability than aspartame under some pH conditions

SMILES: COC(=O)[C@H](Cc1ccccc1)NC(=O)[C@@H](N)CC(=O)O [aspartame] (H-Asp-Phe-OMe)
pKa [3]: 7.7

Now from value to compound, other results behind:

dissolution time in water by spectrophotometric analysis ([1]; 0.1 g in water (100 ml), spectrophotometric analysis): about 90 seconds
dissolution time in water (visual observation) [1, 8]: less than 30 seconds
SMILES: COC(=O)[C@H](Cc1ccccc1)NC(=O)[C@H](CC(=O)O)NCCC(C)(C)C [phosphate salt, Phosphate Salt of N-[N-(3,3-dimethylbutyl)-L-α-aspartyl]-L-phenylalanine 1-methyl Ester]
aqueous solubility compared to the starting material [2]: greatly increased aqueous solubility compared to the starting material

dissolution time in water (visual observation) [1, 8]: less than 20 seconds
SMILES: COC(=O)[C@H](Cc1ccccc1)NC(=O)[C@H](CC(=O)O)NCCC(C)(C)C [sulfate salt, Sulfate Salt of N-[N-(3,3-dimethylbutyl)-L-α-aspartyl]-L-phenylalanine 1-methyl Ester]
aqueous solubility compared to the starting material [2]: greater aqueous solubility compared to the starting material

dissolution time in water ([1]; 1 g in water (100 ml)): 70 s
SMILES: COC(=O)[C@H](Cc1ccccc1)NC(=O)[C@H](CC(=O)O)NCCC(C)(C)C [hydrochloride salt, Hydrochloride Salt of N-[N-(3,3-dimethylbutyl)-L-α-aspartyl]-L-phenylalanine 1-methyl Ester]
aqueous solubility compared to the starting material [2]: greatly increased aqueous solubility compared to the starting material
